This note sets out measurements from patent US20060172990A1, “Antibacterial agents” (priority 2002, published 2006).

What all share (format): cell-based
Assay [1] relates to S. pneumoniae. Description: MIC by agar plate dilution against clinical isolates of S. pneumoniae. The following applies: 3 strains (clinical isolates), Iso-Sensitest agar, 18 to 24 hr, 35° C. The method, then:
(§1) Minimal Inhibitory concentrations (MIC) of inhibitors against clinical isolates of S. pneumoniae, H. influenzae and M. catarrhalis obtained from the Public Health and Clinical Microbiology Laboratory, Addenbrooke's Hospital, Hills Road, Cambridge CB2 2QW, UK, were determined by a standard agar plate dilution method following recommendations in British Society for Antimicrobial Chemotherapy Working Party. 1991 “A guide to sensitivity testing British Society for Antimicrobial Chemomtherapy, London, United Kingdom”. Briefly Iso-Sensitest agar (pH 7.2: Oxoid, United Kingdom) was employed supplemented with 5% horse blood (Oxoid) and 20 μg of NAD (Sigma) per ml to support growth of fastidious bacteria. The inoculum used was approximately 10^4 colony forming units of each isolate contained in a volume of 1 μl. Plate were incubated 18 to 24 hr in air, -or for fastidious bacteria an atmosphere enriched with 4-6% carbon dioxide at 35° C. The MIC was determined as the lowest concentration of an antimicrobial tested that inhibited growth of the inoculum, disregarding a single persisting colony or faint haze caused by the inoculation.
(§2) The compounds of the Examples were are antibacterially active in the above assays, The following table states the MIC ranges of the tested compounds against 3 strains of S. pneumoniae, 2 strains of H. influenzae and 1 strain of M. catarrhalis.

Assay [2] has as its system H. influenzae. Description: MIC by agar plate dilution against clinical isolates of H. influenzae. The following applies: Haemophilus influenzae, 2 strains (clinical isolates), Iso-Sensitest agar, 18 to 24 hr, 35° C., read-out: MIC range H. influenzae. On the procedure:
as §1, §2

Assay [3] deals with M. catarrhalis. Kind of assay: MIC by agar plate dilution against clinical isolate of M. catarrhalis. The following applies: Moraxella catarrhalis, 1 strain (clinical isolate), Iso-Sensitest agar, 18 to 24 hr, 35° C. The method, then:
as §1, §2

SMILES strings stand for the structures. ≈ marks a conversion by molar mass, not a printed value.

Turning to `CC(C)N(CC(=O)N1CCCC1)NC(=O)[C@H](CC1CCCC1)CN(O)C=O` [Example 2], the “MIC range S. pneumoniae” value in assay [1] fell in the range of 4 to 16 µg/mL. The MIC in assay [2] came to 8 µg/mL (≈ 20.9 µM); in assay [3], 0.5 µg/mL (≈ 1.31 µM).
With `CC(C)N(CC(=O)N(C)C)NC(=O)[C@H](CC1CCCC1)CN(O)C=O` [Example 3, 2-{N′-[(2R)-Cyclopentylmethyl-3-(formyl-hydroxy-amino)-propionyl]-N-isopropyl-hydrazino}-N,N-dimethyl-acetamide], the MIC in assay [2] was 0.5 to 1 µg/mL (≈ 1.4 to 2.81 µM); in assay [3] it was 0.5 µg/mL (≈ 1.4 µM).
Consider `COc1cc2c(cc1OC)CN(C(=O)CN(NC(=O)[C@H](CC1CCCC1)CN(O)C=O)C(C)C)CC2` [Example 4, N-{3-Cyclopentyl-(2R)-[N′-[2-(6,7-dimethoxy-3,4-dihydro-1H-isoquinolin-2-yl)-2-oxo-ethyl]-N′-isopropyl-hydrazinocarbonyl}-propyl)-N-hydroxy-formamide], for which the “MIC range S. pneumoniae” value in assay [1] was 1 to 2 µg/mL. The MIC was 32 µg/mL (≈ 63.4 µM) in assay [2] and 0.5 µg/mL (≈ 0.991 µM) in assay [3].
In the same order, the values of `CC(C)N(CC(=O)N1CCN(Cc2ccc3c(c2)OCO3)CC1)NC(=O)[C@H](CC1CCCC1)CN(O)C=O` [Example 5, N-(2-{N′-[(2R)-(4-Benzo[1,3]dioxol-5-ylmethyl-piperazin-1-yl)-2-oxo-ethyl]-N′-isopropyl-hydrazinocarbonyl}-3-cyclopentylpropyl)-N-hydroxy formamide] are 1 to 4 µg/mL, > 32 µg/mL and 1 µg/mL (≈ 1.88 µM).
As to `CC(C)N(CC(=O)Nc1cccnc1)NC(=O)[C@H](CC1CCCC1)CN(O)C=O` [Example 6], the values for the MIC in assay [2] and in assay [3] were 32 µg/mL (≈ 78.9 µM) and 2 µg/mL (≈ 4.93 µM), respectively.
With `CC(C)N(CC(=O)Nc1nccs1)NC(=O)[C@H](CC1CCCC1)CN(O)C=O` [Example 7, 2-{N′-[(2R)-Cyclopentylmethyl-3-(formyl-hydroxy-amino)-propionyl]-N-isopropyl-hydrazino}-N-thiazol-2-yl-acetamide], in assay [1], the “MIC range S. pneumoniae” value fell in the range of 16 to 32 µg/mL. Further, the figures for the MIC in assay [2] and in assay [3] were 16 to 32 µg/mL (≈ 38.9 to 77.8 µM) and 2 µg/mL (≈ 4.86 µM), respectively.
For the compound `Cc1coc(NC(=O)CN(NC(=O)[C@H](CC2CCCC2)CN(O)C=O)C(C)C)n1` [Example 8, 2-{N′-[(2R)-Cyclopentylmethyl-3-(formyl-hydroxy-amino)-propionyl]-N-isopropyl-hydrazino}-N-(4-methyl-oxazol-2-yl)-acetamide], the “MIC range S. pneumoniae” value in assay [1] fell in the range of 8 to 16 µg/mL. The MIC in assay [3] is 2 µg/mL (≈ 4.88 µM).
Turning to `Cc1csc(NC(=O)CN(NC(=O)[C@H](CC2CCCC2)CN(O)C=O)C(C)C)n1` [Example 9, 2-{N′-[(2R)-Cyclopentylmethyl-3-(formyl-hydroxy-amino)-propionyl]-N-isopropyl-hydrazino}-N-(4-methyl-thiazol-2-yl)-acetamide], the “MIC range S. pneumoniae” value in assay [1] lay in the range of 16 to 32 µg/mL. The MIC in assay [2] is > 32 µg/mL; in assay [3] it was 2 µg/mL (≈ 4.7 µM).
Taken in the same sequence, the figures for `CC(C)N(CC(=O)Nc1nc2ccccc2s1)NC(=O)[C@H](CC1CCCC1)CN(O)C=O` [Example 10, N-Benzothiazol-2-yl-2-{N′-[(2R)-cyclopentylmethyl-3-(formyl-hydroxy-amino)-propionyl]-N-isopropyl-hydrazino)acetamide] were 1 to 4 µg/mL, > 32 µg/mL and 2 µg/mL (≈ 4.33 µM).
